Experimental data published in patent US20250213555A1, “SUBSTITUTED TETRAHYDROFURAN ANALOGS AS MODULATORS OF SODIUM CHANNELS” (VERTEX PHARMACEUTICALS INCORPORATED, priority 2021, published 2025).

These compounds were tested against human Nav 1.8 (Homo sapiens, UniProt Q9Y5Y9) (assay: E-VIPR assay detecting and measuring Nav inhibition properties). Conditions: HEK cells expressing a truncated form of human Nav 1.8; compound numbers without "*" (not marked as run in the presence of human serum); read-out: measured IC50 value in the E-VIPR Assay.
Sequence of human Nav 1.8 (Q9Y5Y9 126-399 limits assumed): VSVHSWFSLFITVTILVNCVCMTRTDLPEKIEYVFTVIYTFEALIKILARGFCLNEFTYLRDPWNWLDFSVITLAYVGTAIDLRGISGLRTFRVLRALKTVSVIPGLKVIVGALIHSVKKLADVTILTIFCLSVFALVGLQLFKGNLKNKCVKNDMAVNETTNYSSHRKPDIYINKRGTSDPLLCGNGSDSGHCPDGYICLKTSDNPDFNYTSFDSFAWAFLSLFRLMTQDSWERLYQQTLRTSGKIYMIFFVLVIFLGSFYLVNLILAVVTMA
Sequence of human Nav 1.8 (Q9Y5Y9 660-890 limits assumed): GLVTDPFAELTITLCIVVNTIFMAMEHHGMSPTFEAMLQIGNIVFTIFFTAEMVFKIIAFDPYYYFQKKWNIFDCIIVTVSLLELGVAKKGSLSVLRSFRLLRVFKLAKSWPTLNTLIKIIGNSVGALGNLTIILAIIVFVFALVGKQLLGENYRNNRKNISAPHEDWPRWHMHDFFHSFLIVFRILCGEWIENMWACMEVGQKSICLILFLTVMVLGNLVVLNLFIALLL
Sequence of human Nav 1.8 (Q9Y5Y9 1148-1722 limits assumed): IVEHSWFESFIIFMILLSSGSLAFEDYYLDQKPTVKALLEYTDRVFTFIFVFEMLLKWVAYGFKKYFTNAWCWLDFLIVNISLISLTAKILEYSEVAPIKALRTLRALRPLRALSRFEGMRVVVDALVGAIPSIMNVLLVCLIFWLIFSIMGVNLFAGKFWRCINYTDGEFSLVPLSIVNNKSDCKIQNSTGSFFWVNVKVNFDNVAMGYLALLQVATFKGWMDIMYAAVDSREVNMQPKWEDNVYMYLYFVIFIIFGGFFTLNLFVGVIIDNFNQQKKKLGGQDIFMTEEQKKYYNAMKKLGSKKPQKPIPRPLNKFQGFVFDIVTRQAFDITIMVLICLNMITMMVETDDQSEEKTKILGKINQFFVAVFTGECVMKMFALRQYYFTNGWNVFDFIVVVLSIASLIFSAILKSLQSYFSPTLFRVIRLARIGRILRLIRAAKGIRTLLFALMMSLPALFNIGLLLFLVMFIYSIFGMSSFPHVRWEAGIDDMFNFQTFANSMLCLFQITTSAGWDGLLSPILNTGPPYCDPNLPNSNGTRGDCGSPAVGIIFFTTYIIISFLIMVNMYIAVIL
Type: cell-based
Outline: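 Nav inhibition was read by E-VIPR: cells were electrically stimulated while coumarin/oxonol FRET emissions were recorded. Cells were HEK expressing a truncated human Nav 1.8 and co-transduced with KIR2.1, and were assayed in 25% final human serum.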

| Compound | IC50 [nM] |
| --- | --- |
| CC(CO)COc1c([C@H]2[C@H](C(=O)Nc3ccnc(C(N)=O)c3)O[C@@](C)(C(F)(F)F)[C@H]2C)ccc(F)c1F (stereo partly drawn) [Compound 90, 4-((2R,3S,4S,5R)-3-(3,4-difluoro-2-(3-hydroxy-2-methylpropoxy)phenyl)-4,5-dimethyl-5-(trifluoromethyl)tetrahydrofuran-2-carboxamido)picolinamide] | < 10 |
| CON=C(C)COc1c([C@H]2[C@H](C(=O)Nc3ccnc(C(N)=O)c3)O[C@@](C)(C(F)(F)F)[C@H]2C)ccc(F)c1F [Compound 193, 4-((2R,3S,4S,5R)-3-(3,4-difluoro-2-(2-(methoxyimino)propoxy)phenyl)-4,5-dimethyl-5-(trifluoromethyl)tetrahydrofuran-2-carboxamido)picolinamide] | < 10 |
| C[C@H]1[C@@H](c2ccc(F)c(F)c2OCC(=NO)C2CC2)[C@H](C(=O)Nc2ccnc(C(N)=O)c2)O[C@@]1(C)C(F)(F)F (single isomer, unassigned) [Compound 183, rel-4-((2R*,3S*,4S*,5R*)-3-(2-(2-cyclopropyl-2-(hydroxyimino)ethoxy)-3,4-difluorophenyl)-4,5-dimethyl-5-(trifluoromethyl)tetrahydrofuran-2-carboxamido) picolinamide] | < 10 |
| C[C@H]1[C@@H](c2ccc(F)c(F)c2OC2CC(C)(O)C2)[C@H](C(=O)Nc2ccnc(C(N)=O)c2)O[C@@]1(C)C(F)(F)F (stereo partly drawn) [Compound 174, 4-((2R,3S,4S,5R)-3-(3,4-difluoro-2-(3-hydroxy-3-methylcyclobutoxy)phenyl)-4,5-dimethyl-5-(trifluoromethyl)tetrahydrofuran-2-carboxamido)picolinamide] | < 10 |
| COc1c([C@H]2[C@H](C(=O)Nc3ccnc(C(=O)N4C[C@H]5C[C@@H]4CN5C)c3)O[C@@](C)(C(F)(F)F)[C@H]2C)ccc(F)c1F [Compound 279, (2R,3S,4S,5R)-3-(3,4-difluoro-2-methoxyphenyl)-4,5-dimethyl-N-(2-((1R,4R)-5-methyl-2,5-diazabicyclo[2.2.1]heptane-2-carbonyl)pyridin-4-yl)-5-(trifluoromethyl)tetrahydrofuran-2-carboxamide] | 10 to 100 |
| CC(=O)COc1c([C@H]2[C@H](C(=O)Nc3ccnc(C(N)=O)c3)O[C@@](C)(C(F)(F)F)[C@H]2C)ccc(F)c1F [Compound 79, 4-((2R,3S,4S,5R)-3-(3,4-difluoro-2-(2-oxopropoxy)phenyl)-4,5-dimethyl-5-(trifluoromethyl)tetrahydrofuran-2-carboxamido)picolinamide] | 10 to 100 |
| C[C@H]1[C@@H](c2ccc(F)c(F)c2OC[C@H]2CC[C@H]2O)[C@H](C(=O)Nc2ccnc(C(N)=O)c2)O[C@@]1(C)C(F)(F)F (relative stereo) [Compound 99, rel-4-((2R*,3S*,4S*,5R*)-3-(3,4-difluoro-2-(((1R,2R)-2-hydroxycyclobutyl)methoxy)phenyl)-4,5-dimethyl-5-(trifluoromethyl)tetrahydrofuran-2-carboxamido)picolinamide] | 10 to 100 |
| COCC1(C)CC(c2ccc(F)c(F)c2OC)C(C(=O)Nc2ccnc(C(N)=O)c2)O1 (single isomer, unassigned) [Compound 28] | 100 to 1000 |
| C[C@H]1[C@@H](c2ccc(F)c(F)c2OCC2(F)CNC2)[C@H](C(=O)Nc2ccnc(C(N)=O)c2)O[C@@]1(C)C(F)(F)F [Compound 106, 4-((2R,3S,4S,5R)-3-(3,4-difluoro-2-((3-fluoroazetidin-3-yl)methoxy)phenyl)-4,5-dimethyl-5-(trifluoromethyl)tetrahydrofuran-2-carboxamido)picolinamide] | 100 to 1000 |
| COc1c([C@H]2[C@H](C(=O)Nc3ccnc(C(=O)N4C[C@H]5CC[C@@H](C4)N(C)C5)c3)O[C@@](C)(C(F)(F)F)[C@H]2C)ccc(F)c1F [Compound 283, (2R,3S,4S,5R)-3-(3,4-difluoro-2-methoxyphenyl)-4,5-dimethyl-N-(2-((1S,5S)-6-methyl-3,6-diazabicyclo[3.2.2]nonane-3-carbonyl)pyridin-4-yl)-5-(trifluoromethyl)tetrahydrofuran-2-carboxamide] | < 10 |
